From the supplement of paper PMC10307832

What was measured:
Assay in all cases: relative viability (nuclei count vs DMSO), 5 days (fraction); higher = more cells survive
[1] = compound: CC1=CC(=NN1)NC2=CC(=NC(=N2)/C=C/C3=CC=CC=C3)N4CCN(CC4)C + O=C(CCCCCCC(=O)Nc1ccccc1)NO [Vorinostat] (partner 1 µM)
Procedure, shortened: (§1)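 Relative viability equals treated-well nuclei counts divided by vehicle-well nuclei counts. Counts came from 4× images of lung cancer cell lines grown in 1536-well plates for 5 days after pin-tool dosing on the day after seeding. Dosing used one drug alone or a fixed anchor-drug dose plus five library-drug doses (not always all listed) in √10 steps, and values are medians of duplicate plates.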

[2] = compound: CC1=CC(=NN1)NC2=CC(=NC(=N2)/C=C/C3=CC=CC=C3)N4CCN(CC4)C + CC(C)C[C@H](NC(=O)[C@H](Cc1ccccc1)NC(=O)c1cnccn1)B(O)O [Bortezomib] (partner 0.002 µM)
Procedure, shortened: as §1

Obatoclax + AZD7762 = compound: COC1=CC(c2cc3ccccc3[nH]2)=N/C1=C\c1[nH]c(C)cc1C [Obatoclax] + NC(=O)Nc1cc(-c2cccc(F)c2)sc1C(=O)N[C@H]1CCCNC1 [AZD7762] (partner 0.2 µM)
Procedure, shortened: as §1

Bortezomib + Dasatinib = compound: CC(C)C[C@H](NC(=O)[C@H](Cc1ccccc1)NC(=O)c1cnccn1)B(O)O [Bortezomib] + Cc1nc(Nc2ncc(C(=O)Nc3c(C)cccc3Cl)s2)cc(N2CCN(CCO)CC2)n1 [Dasatinib] (partner 0.075 µM)
Procedure, shortened: as §1

Row | Cell Line | relative viability ([1]; first compound 0.08 µM) | relative viability ([1]; first compound 0.253 µM) | relative viability ([1]; first compound 0.8 µM) | relative viability ([1]; first compound 2.53 µM) | relative viability ([1]; first compound 8 µM) | relative viability ([2]; first compound 0.08 µM) | relative viability ([2]; first compound 0.253 µM) | relative viability ([2]; first compound 0.8 µM) | relative viability ([2]; first compound 2.53 µM) | relative viability ([2]; first compound 8 µM) | relative viability (Obatoclax + AZD7762; first compound 0.01 µM) | relative viability (Obatoclax + AZD7762; first compound 0.03162 µM) | relative viability (Obatoclax + AZD7762; first compound 0.1 µM) | relative viability (Obatoclax + AZD7762; first compound 0.3162 µM) | relative viability (Obatoclax + AZD7762; first compound 1 µM) | relative viability (Bortezomib + Dasatinib; first compound 0.0002 µM) | relative viability (Bortezomib + Dasatinib; first compound 0.000632 µM) | relative viability (Bortezomib + Dasatinib; first compound 0.002 µM) | relative viability (Bortezomib + Dasatinib; first compound 0.006325 µM) | relative viability (Bortezomib + Dasatinib; first compound 0.02 µM)
1 | HCC-78 | 0.465 | 0.518 | 0.461 | 0.372 | 0.246 | 0.456 | 0.636 | 0.582 | 0.559 | 0.214 | 0.745 | 0.669 | 0.694 | 0.633 | 0.596 | 0.354 | 0.385 | 0.291 | 0.422 | 0.274
2 | HCC-366 | 0.38 | 0.505 | 0.136 | 0.0276 | 0.0214 | 0.993 | 1.18 | 1.03 | 0.0189 | 0.0155 | 0.289 | 0.218 | 0.184 | 0.227 | 0.243 | 0.664 | 0.474 | 0.726 | 0.481 | 0.0296
3 | HCC-827 | 0.282 | 0.908 | 0.823 | 0.773 | 0.215 | 1.03 | 1.13 | 0.951 | 0.923 | 0.641 | 0.244 | 0.234 | 0.215 | 0.202 | 0.261 | 0.302 | 0.285 | 0.259 | 0.34 | 0.199
4 | HOP-62 | 0.603 | 0.566 | 0.637 | 0.387 | 0.129 | 0.9 | 0.549 | 1.07 | 0.403 | 0.107 | 0.402 | 0.519 | 0.515 | 0.59 | 0.508 | 0.581 | 0.645 | 0.713 | 0.228 | 0.068
5 | LC-2-ad | 0.709 | 0.751 | 0.467 | 0.186 | 0.15 | 0.938 | 1.03 | 0.602 | 0.289 | 0.0902 | 0.857 | 0.888 | 0.777 | 0.836 | 0.438 | 0.52 | 0.332 | 0.6 | 0.149 | 0.187
6 | LCLC-97TM1 | 0.625 | 0.787 | 0.74 | 0.19 | 0.0813 | 0.742 | 0.57 | 0.77 | 0.114 | 0.0579 | 0.218 |  | 0.203 | 0.229 | 0.206 | 0.738 | 0.732 | 0.862 | 0.718 | 0.148
7 | LCLC-103H | 0.824 | 0.69 | 0.779 | 0.582 | 0.294 | 0.997 | 1.19 | 1.08 | 0.877 | 0.675 | 0.766 | 0.727 | 0.682 | 0.871 | 0.917 | 0.461 | 0.486 | 0.435 | 0.161 | 0.123
8 | LOU-NH91 | 0.954 | 0.935 | 0.941 | 0.594 | 0.41 | 0.403 | 0.472 | 0.537 | 0.474 | 0.358 | 0.703 | 0.717 | 0.646 | 0.667 | 0.539 | 0.539 | 0.529 | 0.519 | 0.271 | 0.226
9 | LU99A | 0.481 | 0.434 | 0.425 | 0.182 | 0.0957 | 1.13 | 0.993 | 0.779 | 0.25 | 0.127 | 0.379 | 0.359 |  | 0.146 | 0.135 | 0.521 | 0.381 | 0.655 | 0.433 | 0.174
10 | LXF-289 | 0.742 | 0.759 | 0.603 | 0.252 | 0.113 | 0.992 | 0.98 | 0.917 | 0.656 | 0.115 | 1.03 | 1.07 | 1.14 | 1.1 | 1.09 | 0.374 | 0.151 | 0.227 | 0.0474 | 0.0368
11 | NCI-H23 | 0.485 | 0.756 | 0.457 | 0.141 | 0.0948 | 0.909 | 0.949 | 0.826 | 0.196 | 0.139 | 0.271 | 0.313 | 0.192 | 0.219 | 0.158 | 0.913 | 0.976 | 0.76 | 0.224 | 0.108
12 | NCI-H322M | 0.881 | 0.948 | 0.891 | 0.31 | 0.303 | 1.14 | 1.24 | 1.17 | 1.1 | 0.258 | 0.538 | 0.556 | 0.549 | 0.399 | 0.4 | 0.26 |  | 0.253 | 0.229 | 0.286
13 | NCI-H441 | 0.569 | 0.768 | 0.58 | 0.498 | 0.138 | 0.543 | 0.547 | 0.332 | 0.265 | 0.192 | 1.33 | 1.28 | 1.16 | 0.941 | 1.08 | 0.646 | 0.507 | 0.282 | 0.136 | 0.119
14 | NCI-H460 | 0.673 | 0.755 | 0.382 | 0.0404 | 0.0188 | 1.07 | 1.1 | 1 | 0.0197 | 0.0105 | 0.651 | 0.537 |  | 0.617 | 0.11 | 0.437 | 0.507 | 0.514 | 0.342 | 0.0305
15 | NCI-H596 | 0.557 | 0.633 | 0.577 | 0.42 | 0.139 | 1.2 | 1.01 | 0.756 | 0.616 | 0.268 | 1.06 | 1.1 | 0.773 | 0.443 | 0.498 | 0.488 | 0.519 | 0.596 | 0.2 | 0.184
16 | NCI-H647 | 0.58 | 0.626 | 0.391 | 0.128 | 0.0534 | 0.807 | 1.1 | 0.957 | 0.068 | 0.0571 | 0.443 | 0.606 | 0.207 | 0.253 | 0.114 | 0.203 | 0.156 | 0.188 | 0.0197 | 0.017
